Assay results reported in patent US12642797B2, “Coated granule, solid dispersion, and preparation containing vortioxetine hydrobromide for oral taste masking” (Seasons Biotechnology (Taizhou) Co., Ltd., priority 2019, dated 2026).
Counter-ions that a name gives are not always drawn.

System: oral cavity and tongue
Assay: Taste and irritation test by subjects (self-made sample vs reference sample)
Type: in vivo, human
Conditions: for Instantaneous irritation: 0-1 minute; for Instantaneous irritation / Delayed irritation: powder equivalent to 20 mg of vortioxetine tasted, hemihydrobromide
Description: In the examples, the taste masking effects of test samples were evaluated by the subject's perception of the bitterness and irritation of the oral cavity and tongue. The Taste and Irritation Classification Tested by the Subjects: [table]

[1] = Subject 1, listed as Reference sample (1a)
[2] = Subject 1, listed as Reference sample (1e)
[3] = Subject 1, listed as Reference sample (2a)
[4] = Subject 1, listed as Reference sample (2c)
[5] = Subject 1, listed as Reference sample (3a)
[6] = Subject 1, listed as Reference sample (3b)
[7] = Subject 1, listed as Reference sample (3c)
[8] = Subject 1, listed as Reference sample (4a)
[9] = Subject 1, listed as Reference sample (1d)
[10] = Subject 1, listed as Reference sample (2d)
[11] = Subject 2, listed as Reference sample (1a)
[12] = Subject 2, listed as Reference sample (1e)
[13] = Subject 2, listed as Reference sample (2a)
[14] = Subject 2, listed as Reference sample (2c)
[15] = Subject 2, listed as Reference sample (3a)
[16] = Subject 2, listed as Reference sample (3b)
[17] = Subject 2, listed as Reference sample (3c)
[18] = Subject 2, listed as Reference sample (4a)
[19] = Subject 2, listed as Reference sample (1d)
[20] = Subject 2, listed as Reference sample (2d)
[21] = Subject 3, listed as Reference sample (1a)
[22] = Subject 3, listed as Reference sample (1e)
[23] = Subject 3, listed as Reference sample (2a)
[24] = Subject 3, listed as Reference sample (2c)
[25] = Subject 3, listed as Reference sample (3a)
[26] = Subject 3, listed as Reference sample (3b)
[27] = Subject 3, listed as Reference sample (3c)
[28] = Subject 3, listed as Reference sample (4a)
[29] = Subject 3, listed as Reference sample (1d)
[30] = Subject 3, listed as Reference sample (2d)

Cc1ccc(Sc2ccccc2N2CCNCC2)c(C)c1 [vortioxetine hemihydrobromide]
Irritation, overall comparison in words (5 subjects, treated powder vs untreated 100-mesh salt powder, each equivalent to 20 mg vortioxetine): obvious and could hardly be tolerated
Instantaneous irritation [1]: ++ (+ + Irritating, tolerable)
Instantaneous irritation [2]: ++ (+ + Irritating, tolerable)
Instantaneous irritation [3]: +++ (+ + + Strong irritation, intolerable)
Instantaneous irritation [4]: +++ (+ + + Strong irritation, intolerable)
Instantaneous irritation [5]: +++ (+ + + Strong irritation, intolerable)
Instantaneous irritation [6]: +++ (+ + + Strong irritation, intolerable)
Instantaneous irritation [7]: +++ (+ + + Strong irritation, intolerable)
Instantaneous irritation [8]: +++ (+ + + Strong irritation, intolerable)
Instantaneous irritation [9]: ++ (+ + Irritating, tolerable)
Instantaneous irritation [10]: ++ (+ + Irritating, tolerable)
Delayed irritation [1]: >30 min
Delayed irritation [2]: 15 to 30 min
Delayed irritation [3]: >30 min
Delayed irritation [4]: >30 min
Delayed irritation [5]: >30 min
Delayed irritation [6]: >30 min
Delayed irritation [7]: >30 min
Delayed irritation [8]: >30 min
Delayed irritation (Subject 1, listed as Reference sample (5)): 15 to 30 min
Delayed irritation (Subject 1, listed as Reference sample (6)): 15 to 30 min
Delayed irritation (Subject 1, listed as Reference sample (7a)): >30 min
Delayed irritation (Subject 1, listed as Reference sample (8a)): 15 to 30 min
Delayed irritation (Subject 1, listed as Reference sample (8b)): 15 to 30 min
Delayed irritation [9]: 15 to 30 min
Delayed irritation [10]: >30 min
Instantaneous irritation [11]: +++ (+ + + Strong irritation, intolerable)
Instantaneous irritation [12]: +++ (+ + + Strong irritation, intolerable)
Instantaneous irritation [13]: ++ (+ + Irritating, tolerable)
Instantaneous irritation [14]: ++ (+ + Irritating, tolerable)
Instantaneous irritation [15]: ++ (+ + Irritating, tolerable)
Instantaneous irritation [16]: ++ (+ + Irritating, tolerable)
Instantaneous irritation [17]: ++ (+ + Irritating, tolerable)
Instantaneous irritation [18]: ++ (+ + Irritating, tolerable)
Instantaneous irritation [19]: +++ (+ + + Strong irritation, intolerable)
Instantaneous irritation [20]: ++ (+ + Irritating, tolerable)
Delayed irritation [11]: >30 min
Delayed irritation [12]: >30 min
Delayed irritation [13]: 15 to 30 min
Delayed irritation [14]: 15 to 30 min
Delayed irritation [15]: 15 to 30 min
Delayed irritation [16]: 15 to 30 min
Delayed irritation [17]: 15 to 30 min
Delayed irritation [18]: 15 to 30 min
Delayed irritation (Subject 2, listed as Reference sample (5)): >30 min
Delayed irritation (Subject 2, listed as Reference sample (6)): >30 min
Delayed irritation (Subject 2, listed as Reference sample (7a)): 15 to 30 min
Delayed irritation (Subject 2, listed as Reference sample (8a)): 15 to 30 min
Delayed irritation (Subject 2, listed as Reference sample (8b)): 15 to 30 min
Delayed irritation [19]: >30 min
Delayed irritation [20]: 15 to 30 min
Instantaneous irritation [21]: +++ (+ + + Strong irritation, intolerable)
Instantaneous irritation [22]: +++ (+ + + Strong irritation, intolerable)
Instantaneous irritation [23]: +++ (+ + + Strong irritation, intolerable)
Instantaneous irritation [24]: +++ (+ + + Strong irritation, intolerable)
Instantaneous irritation [25]: ++ (+ + Irritating, tolerable)
Instantaneous irritation [26]: ++ (+ + Irritating, tolerable)
Instantaneous irritation [27]: ++ (+ + Irritating, tolerable)
Instantaneous irritation [28]: +++ (+ + + Strong irritation, intolerable)
Instantaneous irritation [29]: +++ (+ + + Strong irritation, intolerable)
Instantaneous irritation [30]: +++ (+ + + Strong irritation, intolerable)
Delayed irritation [21]: >30 min
Delayed irritation [22]: >30 min
Delayed irritation [23]: 1 to 15 min
Delayed irritation [24]: 1 to 15 min
Delayed irritation [25]: >30 min
Delayed irritation [26]: >30 min
Delayed irritation [27]: >30 min
Delayed irritation [28]: >30 min
Delayed irritation (Subject 3, listed as Reference sample (5)): 15 to 30 min
Delayed irritation (Subject 3, listed as Reference sample (6)): 15 to 30 min
Delayed irritation (Subject 3, listed as Reference sample (7a)): 15 to 30 min
Delayed irritation (Subject 3, listed as Reference sample (8a)): >30 min
Delayed irritation (Subject 3, listed as Reference sample (8b)): >30 min
Delayed irritation [29]: >30 min
Delayed irritation [30]: 1 to 15 min
Instantaneous irritation (Subject 4, listed as Reference sample (1a)): ++ (+ + Irritating, tolerable)
Instantaneous irritation (Subject 4, listed as Reference sample (1e)): ++ (+ + Irritating, tolerable)
